Assay results: US20050171119A1, “Pharmaceutical formulations with modified release” (UCB, S.A., priority 2002, published 2005)

How the values were obtained:
[1] = Administration of 60 mg IR efletirizine gelatin capsule: influence of a meal; assay type: in vivo, patients; settings: for AUC / Cmax / Tmax: human, in vivo, oral, 60 mg, 60 mg gelatin capsule
Procedure: A gelatin capsule containing 60 mg of efletirizine was administered to 20 fasting patients and to 22 patients who had eaten a standardized fatty meal beforehand.

[2] = Crossover trial: 10 mg IR solution plus 25 mg PR tablet J, fasting or after a meal, vs 15 mg IR solution twice; assay type: in vivo, human volunteers; settings: human, plasma, oral, IR solution 15 mg × 2, 12-hour interval; for Cmax / Tmax: 15 mg
Procedure: In a crossover trial, 12 volunteers received 3 types of treatments: • 10 mg of IR efletirizine in the form of a solution and one PR tablet of 25 mg of efletirizine (J) while fasting; • 10 mg of IR efletirizine in the form of a solution and one PR tablet of 25 mg of efletirizine (J) after a standardized fatty meal; • 15 mg of IR efletirizine in the form of a solution, taken twice with a 12-hour interval
The first 3 components are granulated. The last 3 are then added and the mixture is compressed. The tablet J is a repeat of the composition of the tablet F, to which a granulating agent, Povidone K30™, has been added.

histamine H1 receptor = histamine H1 receptor (Homo sapiens, UniProt P35367); settings: background statement; cited from earlier work
Sequence of histamine H1 receptor (P35367 whole entry, species assumed): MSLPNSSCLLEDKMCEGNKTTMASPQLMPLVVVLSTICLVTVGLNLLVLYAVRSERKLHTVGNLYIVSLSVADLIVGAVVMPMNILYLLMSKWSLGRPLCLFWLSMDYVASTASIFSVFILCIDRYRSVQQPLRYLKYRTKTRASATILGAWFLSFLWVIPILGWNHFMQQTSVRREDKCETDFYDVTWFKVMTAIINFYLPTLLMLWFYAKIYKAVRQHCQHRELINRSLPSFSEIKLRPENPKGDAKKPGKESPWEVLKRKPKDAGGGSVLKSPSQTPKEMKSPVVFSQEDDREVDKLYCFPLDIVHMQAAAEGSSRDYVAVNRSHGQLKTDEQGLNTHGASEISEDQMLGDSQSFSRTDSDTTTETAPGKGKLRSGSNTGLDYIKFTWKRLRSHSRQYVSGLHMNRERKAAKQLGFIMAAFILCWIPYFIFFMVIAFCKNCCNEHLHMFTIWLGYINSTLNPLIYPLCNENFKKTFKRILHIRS

[3] = Administration of 2 times 15 mg of efletirizine in solution with a 12-hour interval; assay type: in vivo, healthy volunteers; settings: human, plasma, oral, 2 times 15 mg in solution; for Cmax / Tmax: 15 mg
Procedure: Two times 15 mg of efletirizine in solution were administered to 12 healthy volunteers, with a 12-hour interval.

[4] = 60 mg IR gelatin capsule, after a meal vs fasting
[5] = after a standardized fatty meal
[6] = second dose, read-out: Cmax (2)
[7] = second dose, read-out: tmax (2)

decrease of Cmax by having a meal [1, 4]: 42%
influence of a meal on bioavailability [1, 4]: decreased
AUC [1, 5]: 5780 ng·h/mL
Cmax [1, 5]: 855 ng/mL
Tmax [1, 5]: 3.03 h
AUC ([1]; fasting): 6350 ng·h/mL
Cmax ([1]; fasting): 1470 ng/mL
Tmax ([1]; fasting): 0.77 h
Cmax ([2]; first dose, read-out: Cmax (1)): 307 ng/mL
Tmax ([2]; first dose, read-out: tmax (1)): 0.6 h
Cmax [2, 6]: 305 ng/mL
Tmax [2, 7]: 12.6 h
AUC [2]: 2800 ng·h/mL
Cmax ([3]; first dose, read-out: Cmax(1)): 307 ng/mL
Tmax ([3]; first dose, read-out: tmax (1)): 0.6 h
Cmax [3, 6]: 305 ng/mL
Tmax [3, 7]: 12.6 h
AUC [3]: 2800 ng·h/mL
SMILES: O=C(O)COCCN1CCN(C(c2ccc(F)cc2)c2ccc(F)cc2)CC1 [efletirizine, 2-[2-[4-[Bis(4-fluorophenyl)methyl]-1-piperazinyl]-ethoxy]acetic acid]
affinity in vitro for H1 receptors (histamine H1 receptor): great affinity
selectivity in vitro for H1 receptors (histamine H1 receptor): great selectivity
